Data from article PMC8765437, “GSK3640254 Is a Novel HIV-1 Maturation Inhibitor with an Optimized Virology Profile” (Antimicrobial Agents and Chemotherapy, 2022).
Read-outs that look alike come from different tables or passages of the source.

System: NLRepRlucP373S viruses containing Gag SDMs or gag/pr genes from clinical isolates
Experiment: Multiple-cycle replication assay, NLRepRluc reporter viruses in MT-2 cells, luciferase endpoint
Type: cell-based, HIV-1
Text: Multiple-cycle assays using recombinant viruses or clinical isolates were used to assess MI antiviral activity as described previously ([10]). pNLRepRlucP373S (the P373S change is in the Gag gene and converts an outlier polymorphism in the NL4-3 gene to the prevalent amino acid in the population) plasmids containing SDMs in Gag or gag/pr regions from clinical isolates were transfected into HEK 293T cells, and the supernatant containing recombinant virus was harvested after 4 to 5 days. Virus was used to infect MT-2 cells in the presence of a 3-fold serially diluted compound at a final dimethyl sulfoxide (DMSO) concentration of 1%. The inocula of the reporter viruses were determined based on the luciferase activity detected on day 4 postinfection. The MOI (ratio of infectious virions to target cells) of reporter-free laboratory strains and clinical isolates was 0.005, as derived from a tissue culture infectious dose study. Clinical isolates or reporter-free viruses were examined in the reporter CEM-NKR-CCR5-Luc cells or PBMCs at MOIs ranging from 0.005 to 0.01. Each infection started with a drug-free preincubation of the cell-virus mixtures, performed at 37°C and 5% CO2 for either 1 h at 2 times the final cell density (reporter viruses) or 1 h (reporter-free laboratory strains) or 3 h (clinical isolates) using cell pellets in 0.5 mL of medium. After preincubation, cell-virus mixtures were added to compound-containing 96-well plates for a final cell density of either 10,000 (MT-2 cells for reporter viruses), 20,000 (MT-2 and PM1 cells for reporter-free laboratory strains), 200,000 (PBMCs for clinical isolates), or 500,000 (CEM-NKR-CCR5-Luc for reporter-free laboratory strains) cells per well. The CEM-NKR-CCR5-Luc cell assay was performed in the presence of Polybrene (10 μg/mL). Virus growth was determined on days 4 to 5 postinfection for reporter variants or days 5 to 11 for the other viruses. The reporter viruses were detected by a luciferase assay according to manufacturer protocols (Brite-Glo luciferase kit [Promega] for CEM-NKR-CCR5-Luc cells and Dual-Luciferase Reporter 1000 assay system [Promega] for the other cells), and luminescence was detected on a Wallac Trilux. The growth of clinical isolates in PBMCs was quantitated by reverse transcriptase activity in a 96-well scintillation proximity assay (SPA). Twenty microliters of culture supernatants was mixed with 40 μL of reaction cocktail (62.5 mM Tris-HCl [pH 7.8], 100 mM KCl, 0.0625% NP-40, 2.5 mM dithiothreitol [DTT], 6.25 mM MgCl2, 1 mM EGTA, 6.25 μg/mL of poly rA, 2.5 μg/mL of streptavidin SPA beads prebound with biotinylated-dT12-18, and 1 μCi of [^3H]TTP). Mixtures were incubated at 37°C for ∼3 h and quenched with 100 μl of 0.25 M EDTA per well. Luminescence was detected on a Wallac Trilux programmed for tritium counting with SPA beads in opaque plates. The growth of the reporter-free laboratory M-tropic strains and clinical isolates was monitored by a p24 enzyme-linked immunosorbent assay (ELISA; PerkinElmer Life Sciences, Waltham, MA) performed on culture supernatants. […] A 1:1,000 dilution of cell supernatant in PBS was generally observed to fall in the dynamic range of the endpoint signal.
Maximal percent inhibition values were calculated as MPI = 100 – (mean signals at the 2 highest concentrations of compound/mean signal of 2 no-drug control wells) × 100.

`C=C(C)[C@@H]1CC[C@]2(NCCN3CCS(=O)(=O)CC3)CC[C@]3(C)[C@H](CC[C@@H]4[C@@]5(C)CC=C(c6ccc(C(=O)O)cc6)C(C)(C)[C@@H]5CC[C@]43C)[C@@H]12` [GSK’795, reference compound] was tested, and the MPI (A366V-containing viruses) was −13 to 408%, the EC50 (Human immunodeficiency virus 1, MT2, Table S1, SDM A326T/V362I/V370A) was ≥ 3000 nM and the EC50 (Human immunodeficiency virus 1, MT2, Table S1, SDM S368R/V370A) was 2 nM. For the same compound, the EC50 (Human immunodeficiency virus 1, MT2, Table S1, SDM T332S/V362I/PrR41G) was 700 nM, the EC50 (Human immunodeficiency virus 1, MT2, Table S1, SDM V362I/V370A) was ≥ 3000 nM and the EC50 (Human immunodeficiency virus 1, MT2, Table S1, SDM V370A) was 6 nM. It also gave an EC50 (Human immunodeficiency virus 1, MT2, Table S1, SDM V370A/ΔT371) of 7 nM, an EC50 (Human immunodeficiency virus 1, MT2, Table S1, SDM ΔV370) of 6 nM and an EC50 (Human immunodeficiency virus 1, MT2, Table S1, subtype B SDM Wild-type (V, QVT)) of 5 nM. It also gave an EC50 (Human immunodeficiency virus 1, MT2, read-out: EC50 (range), Subtype C gag/pr viruses, n=11) of 3 to 22 nM, an EC50 (Human immunodeficiency virus 1, MT2, read-out: EC50 (range), V362I only viruses, n=9) of 3 to 54 nM and an EC50 (Human immunodeficiency virus 1, MT2, read-out: EC50 (range), Wild-type subtype B, n=5) of 1 to 6 nM. For the same compound, the EC50 (Human immunodeficiency virus 1, MT2, read-out: Mean ± SD EC50, A366V-containing viruses (A366V, V362I/A366V, V362I/A366V/V370M, A366V/V370M)) was > 3000 nM, the EC50 (Human immunodeficiency virus 1, MT2, read-out: Mean ± SD EC50, SDM A326T/V362I/V370A) was > 3000 nM and the EC50 (Human immunodeficiency virus 1, MT2, read-out: Mean ± SD EC50, SDM A364V) was > 3000 nM. For the same compound, the EC50 (Human immunodeficiency virus 1, MT2, read-out: Mean ± SD EC50, SDM R361K/V362I/L363M) was 552 ± 971 nM, the EC50 (Human immunodeficiency virus 1, MT2, read-out: Mean ± SD EC50, SDM T332S/V362I/prR41G) was 704 ± 606 nM and the EC50 (Human immunodeficiency virus 1, MT2, read-out: Mean ± SD EC50, SDM V362I/V370A) was > 3000 nM. The EC50 (Human immunodeficiency virus 1, MT2, read-out: Mean ± SD EC50, SDM V370A) was 6 nM, the EC50 (Human immunodeficiency virus 1, MT2, read-out: Mean ± SD EC50, SDM Wild type) was 5 ± 3 nM and the EC50 (Human immunodeficiency virus 1, MT2, read-out: Mean ± SD EC50, SDM ΔV370) was 6 ± 2 nM. It also gave an EC50 (Human immunodeficiency virus 1, MT2, read-out: Mean ± SD EC50, Subtype B gag/pr viruses, n=24) of 66 nM, an EC50 (Human immunodeficiency virus 1, MT2, read-out: Mean ± SD EC50, Subtype C gag/pr viruses, n=11) of 9.1 ± 5.6 nM and an EC50 (Human immunodeficiency virus 1, MT2, read-out: Mean ± SD EC50, V362I only viruses, n=9) of 11.1 ± 16.3 nM. It also gave an EC50 (Human immunodeficiency virus 1, MT2, read-out: Mean ± SD EC50, V362I/ΔV370 virus, n=1) of 1400 nM, an EC50 (Human immunodeficiency virus 1, MT2, read-out: Mean ± SD EC50, Wild-type subtype B (V362, Q369, V370, T371), n=5) of 2.8 ± 2.5 nM and an EC50 (Human immunodeficiency virus 1, MT2, read-out: Median EC50, Subtype B gag/pr viruses, n=24) of 5 nM. It also gave an EC50 (Human immunodeficiency virus 1, MT2, read-out: Median EC50, Subtype C gag/pr viruses, n=11) of 7 nM, an EC50 (Human immunodeficiency virus 1, MT2, read-out: Median EC50, V362I only viruses, n=9) of 5 nM and an EC50 (Human immunodeficiency virus 1, MT2, read-out: Median EC50, Wild-type subtype B, n=5) of 1 nM. For the same compound, the EC90 (Human immunodeficiency virus 1, MT2, read-out: PBA EC90, Table S1, SDM R361K/V362I/L363M) was 321000 nM, the EC90 (Human immunodeficiency virus 1, MT2, read-out: PBA EC90, Table S1, SDM S368R/V370A) was 40 nM and the EC90 (Human immunodeficiency virus 1, MT2, read-out: PBA EC90, Table S1, SDM T332S/V362I/PrR41G) was 422000 nM. The EC90 (Human immunodeficiency virus 1, MT2, read-out: PBA EC90, Table S1, SDM V370A) was 50 nM, the EC90 (Human immunodeficiency virus 1, MT2, read-out: PBA EC90, Table S1, SDM V370A/ΔT371) was 230 nM and the EC90 (Human immunodeficiency virus 1, MT2, read-out: PBA EC90, Table S1, SDM ΔV370) was 1030 nM. For the same compound, the EC90 (Human immunodeficiency virus 1, MT2, read-out: PBA EC90, Table S1, subtype B SDM Wild-type (V, QVT)) was 110 nM, the EC90 (Human immunodeficiency virus 1, MT2, read-out: PBA EC90, subtype B gag/pr 4NRR (Wild-type)) was 70 nM and the EC90 (Human immunodeficiency virus 1, MT2, read-out: PBA EC90, subtype B gag/pr 28-MDR (Wild-type)) was 100 nM. It also gave an EC90 (Human immunodeficiency virus 1, MT2, read-out: PBA EC90, subtype B gag/pr 92BR014 (V370M)) of 370 nM, an EC90 (Human immunodeficiency virus 1, MT2, read-out: PBA EC90, subtype B gag/pr 92BR018 (V, QAΔ)) of 970 nM and an EC90 (Human immunodeficiency virus 1, MT2, read-out: PBA EC90, subtype B gag/pr 92TH014 (V362I)) of 670 nM. The EC90 (Human immunodeficiency virus 1, MT2, read-out: PBA EC90, subtype B gag/pr 92TH026 (V362I)) was 210 nM, the EC90 (Human immunodeficiency virus 1, MT2, read-out: PBA EC90, subtype B gag/pr 92US072 (V362I)) was 130 nM and the EC90 (Human immunodeficiency virus 1, MT2, read-out: PBA EC90, subtype B gag/pr 92US729 (Wild-type)) was 70 nM. It also gave an EC90 (Human immunodeficiency virus 1, MT2, read-out: PBA EC90, subtype B gag/pr 93BR008 (V362I)) of 120 nM, an EC90 (Human immunodeficiency virus 1, MT2, read-out: PBA EC90, subtype B gag/pr 93BR009 (V370M)) of 130 nM and an EC90 (Human immunodeficiency virus 1, MT2, read-out: PBA EC90, subtype B gag/pr 93BR017 (V, QAΔ)) of 600 nM. For the same compound, the EC90 (Human immunodeficiency virus 1, MT2, read-out: PBA EC90, subtype B gag/pr 93BR022 (V, QAΔ)) was 630 nM, the EC90 (Human immunodeficiency virus 1, MT2, read-out: PBA EC90, subtype B gag/pr 93TH0647 (V362I)) was 60 nM and the EC90 (Human immunodeficiency virus 1, MT2, read-out: PBA EC90, subtype B gag/pr 93US141 (V362I)) was 250 nM. It also gave an EC90 (Human immunodeficiency virus 1, MT2, read-out: PBA EC90, subtype B gag/pr 411-1-C (Wild-type)) of 40 nM, an EC90 (Human immunodeficiency virus 1, MT2, read-out: PBA EC90, subtype B gag/pr 220162 (Wild-type)) of 600 nM and an EC90 (Human immunodeficiency virus 1, MT2, read-out: PBA EC90, subtype B gag/pr 400024 (V370M)) of 79000 nM. It also gave an EC90 (Human immunodeficiency virus 1, MT2, read-out: PBA EC90, subtype B gag/pr 400051 (V370A)) of 30 nM and an EC90 (Human immunodeficiency virus 1, MT2, read-out: PBA EC90, subtype B gag/pr 1000038 (V362I/V370A)) of 977000 nM.
